Test results: the NIST ThermoML archive (doi:10.1016/j.jct.2017.09.006)
± gives the expanded uncertainty stated by the source.

How the values were obtained:
[1] = Molar enthalpy of transition or fusion; details: Crystal; DSC
[2] = Crystal; DTA

**Q.** For COC(=O)c1cccc(C(=O)OC)c1 [dimethyl 1,3-benzenedicarboxylate], which “Molar enthalpy of transition or fusion” value [1] is on record?
**A.** 6.67 ± 0.167 kcal/mol

**Q.** And the Normal melting temperature [2]?
**A.** 67.2 ± 0.5 °C

**Q.** Which results are given for Cc1ccc2ccc(C)cc2c1 [2,7-dimethylnaphthalene]?
**A.** Molar enthalpy of transition or fusion [1]: 6.05 ± 0.263 kcal/mol; Normal melting temperature [2]: 95.0 ± 0.5 °C
